This is an account of results in PubChem BioAssay AID256 (DTP/NCI, 2004).

Where “and” joins values, the source holds several entries; their conditions need not be identical. Equal values may be shown once. Toxic doses and inconclusive results are not listed.

The assay concerns CD2F1 mice, L1210 leukemia ip, survival T/C. The experiment in a line: NCI In Vivo Anticancer Drug Screen. Data for tumor model L1210 Leukemia (intraperitoneal) in CD2F1 (CDF1) mice. The following applies: higher = longer survival. A digest of the protocol:
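Tumor-bearing mice (transplanted tumor) were split into treated and vehicle control groups, and the measured endpoint of each treated group was divided by that of its vehicle controls.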

Setting [1] is: endpoint: mean survival time, dose: 100.0 mg/kg/injection, schedule: Q01DX009 (ip), vehicle: Klucel (hydroxypropylcellulose) (HPC).
Setting [2] is: endpoint: mean survival time, dose: 200.0 mg/kg/injection, schedule: Q01DX009 (ip), vehicle: Klucel (hydroxypropylcellulose) (HPC).
[3] abbreviates: endpoint: mean survival time, dose: 100.0 mg/kg/injection, schedule: Q04DX003 (ip), vehicle: saline with Tween-80.
[4] abbreviates: endpoint: mean survival time, dose: 200.0 mg/kg/injection, schedule: Q04DX003 (ip), vehicle: saline with Tween-80.
[5] abbreviates: endpoint: mean survival time, dose: 400.0 mg/kg/injection, schedule: Q04DX003 (ip), vehicle: saline with Tween-80.

Regarding `CC1(C)OC(C(COC(c2ccccc2)(c2ccccc2)c2ccccc2)OC(=O)c2ccccc2)C(C(COC(c2ccccc2)(c2ccccc2)c2ccccc2)OC(=O)c2ccccc2)O1` (centres undefined), the T/C is, setting by setting: (endpoint: mean survival time, dose: 50.0 mg/kg/injection, schedule: Q01DX009 (ip), vehicle: Klucel (hydroxypropylcellulose) (HPC)) 98 % of control; under setting [1], 94 % of control; under setting [2], 94 % of control.

For `O=[N+]([O-])c1ccc2c(ccn2C2OCC(O)C(O)C2O)c1` (centres undefined), the T/C (endpoint: mean survival time, dose: 450.0 mg/kg/injection, schedule: Q01DX009 (ip), vehicle: saline with Tween-80) was 101 % of control.

`CCN(CC)CCC(=O)c1ccc2ccc3ccccc3c2c1`: the T/C is 93 % of control (endpoint: mean survival time, dose: 50.0 mg/kg/injection, schedule: Q01DX001 (ip), vehicle: saline) and 89 % of control (endpoint: mean survival time, dose: 100.0 mg/kg/injection, schedule: Q01DX001 (ip), vehicle: saline).

On to `CCOC(=O)Nc1cc(NCc2ccccc2)c2[nH]cnc2n1`, for which the T/C is 89 % of control (endpoint: mean survival time, dose: 100.0 mg/kg/injection, schedule: Q01DX001 (ip), vehicle: Klucel (hydroxypropylcellulose) (HPC)); 95 % of control (endpoint: mean survival time, dose: 200.0 mg/kg/injection, schedule: Q01DX001 (ip), vehicle: Klucel (hydroxypropylcellulose) (HPC)); 98 % of control (endpoint: mean survival time, dose: 400.0 mg/kg/injection, schedule: Q01DX001 (ip), vehicle: Klucel (hydroxypropylcellulose) (HPC)).

For the molecule `O=NN(CCCl)C(=O)Nc1cc(NC(=O)N(CCCl)N=O)cc(C(=O)O)c1`, the T/C is, setting by setting: (endpoint: mean survival time, dose: 10.0 mg/kg/injection, schedule: Q04DX003 (ip), vehicle: saline with Tween-80) 186 % of control; (endpoint: mean survival time, dose: 20.0 mg/kg/injection, schedule: Q04DX003 (ip), vehicle: saline with Tween-80) 212 % of control.

Turning to `CCN(C(=O)Nc1cccc2ccccc12)c1ccccc1`, the T/C is 104 % of control under setting [3], 101 % of control under setting [4] and 109 % of control under setting [5].

As for `O=[N+]([O-])c1ccc(-c2ccccc2)cc1`, the T/C under setting [3] is 100 % of control, the T/C under setting [4] is 96 % of control and the T/C under setting [5] is 97 % of control.

Take `N=C(N)c1ccc(OCCCCOc2ccc(NC(=O)Nc3ccc(S(=O)(=O)F)cc3Cl)cc2)cc1`: the T/C reads like this: (endpoint: mean survival time, dose: 12.5 mg/kg/injection, schedule: Q01DX001 (ip), vehicle: saline with Tween-80) 98 % of control; (endpoint: mean survival time, dose: 25.0 mg/kg/injection, schedule: Q01DX001 (ip), vehicle: saline with Tween-80) 98 % of control; (endpoint: mean survival time, dose: 50.0 mg/kg/injection, schedule: Q01DX001 (ip), vehicle: saline with Tween-80) 96 % of control.

As for `Cn1nc2ccccc2n1`, the T/C is, setting by setting: (endpoint: mean survival time, dose: 118.0 mg/kg/injection, schedule: Q04DX003 (ip), vehicle: saline with Tween-80) 104 % of control; (endpoint: mean survival time, dose: 178.0 mg/kg/injection, schedule: Q04DX003 (ip), vehicle: saline with Tween-80) 98 % of control; (endpoint: mean survival time, dose: 266.0 mg/kg/injection, schedule: Q04DX003 (ip), vehicle: saline with Tween-80) 109 % of control; under setting [5], 96 % of control.

Take `CO[C@H](C(=O)[C@@H](O)[C@@H](C)O)[C@@H]1Cc2cc3cc(OC4CC(OC5CC(O)C(O)C(C)O5)C(O)C(C)O4)c(C)c(O)c3c(O)c2C(=O)[C@H]1OC1CC(OC2CC(OC3CC(C)(O)C(O)C(C)O3)C(O)C(C)O2)C(O)C(C)O1` (some centres undefined): the T/C by setting is: (endpoint: mean survival time, dose: 0.13 mg/kg/injection, schedule: Q01DX009 (ip), vehicle: saline) 95 % of control and 97 % of control and 101 % of control; (endpoint: mean survival time, dose: 0.25 mg/kg/injection, schedule: Q01DX009 (ip), vehicle: saline) 95 % of control and 97 % of control and 103 % of control; (endpoint: mean survival time, dose: 0.5 mg/kg/injection, schedule: Q01DX009 (ip), vehicle: saline) 93 % of control and 100 % of control and 105 % of control; (endpoint: mean survival time, dose: 0.5 mg/kg/injection, schedule: Q01DX Z (ip), vehicle: saline) 124 % of control; (endpoint: mean survival time, dose: 1.0 mg/kg/injection, schedule: Q01DX009 (ip), vehicle: saline) 101 % of control and 104 % of control and 107 % of control.

For the molecule `CC(=O)c1ccc(N=NN(C)C)cc1`, the T/C was 96 % of control (endpoint: mean survival time, dose: 2.37 mg/kg/injection, schedule: Q01DX009 (ip), vehicle: Klucel (hydroxypropylcellulose) (HPC)); 96 % of control (endpoint: mean survival time, dose: 9.5 mg/kg/injection, schedule: Q01DX009 (ip), vehicle: Klucel (hydroxypropylcellulose) (HPC)); 110 % of control (endpoint: mean survival time, dose: 19.0 mg/kg/injection, schedule: Q01DX009 (ip), vehicle: Klucel (hydroxypropylcellulose) (HPC)); 101 % of control (endpoint: mean survival time, dose: 58.0 mg/kg/injection, schedule: Q01DX009 (ip), vehicle: Klucel (hydroxypropylcellulose) (HPC)).

With `O=C(N/N=C\c1c(Cl)cccc1Cl)c1ccccc1`, the T/C is, setting by setting: under setting [1], 94 % of control; (endpoint: mean survival time, dose: 100.0 mg/kg/injection, schedule: Q04DX003 (ip), vehicle: Klucel (hydroxypropylcellulose) (HPC)) 100 % of control; under setting [2], 96 % of control; (endpoint: mean survival time, dose: 200.0 mg/kg/injection, schedule: Q04DX003 (ip), vehicle: Klucel (hydroxypropylcellulose) (HPC)) 100 % of control; (endpoint: mean survival time, dose: 400.0 mg/kg/injection, schedule: Q04DX003 (ip), vehicle: Klucel (hydroxypropylcellulose) (HPC)) 96 % of control.

With `CNC/C(C)=C/Br`, the T/C is, setting by setting: (endpoint: mean survival time, dose: 50.0 mg/kg/injection, schedule: Q01DX009 (ip), vehicle: acetone) 101 % of control; (endpoint: mean survival time, dose: 100.0 mg/kg/injection, schedule: Q04DX003 (ip), vehicle: acetone) 101 % of control; (endpoint: mean survival time, dose: 200.0 mg/kg/injection, schedule: Q04DX003 (ip), vehicle: acetone) 97 % of control.

Turning to `CC(=O)NC1C(OC(C)=O)OC(COC(c2ccccc2)(c2ccccc2)c2ccccc2)C(OS(C)(=O)=O)C1OC(C)=O` (centres undefined), the T/C (endpoint: mean survival time, dose: 50.0 mg/kg/injection, schedule: Q04DX003 (ip), vehicle: saline with Tween-80) is 95 % of control; the T/C under setting [3] was 103 % of control; the T/C under setting [4] was 101 % of control; the T/C under setting [5] is 89 % of control.

For the molecule `ClC12CCC(CC1)C2`, the T/C is, setting by setting: (endpoint: mean survival time, dose: 100.0 mg/kg/injection, schedule: Q04DX003 (ip), vehicle: saline) 100 % of control; (endpoint: mean survival time, dose: 200.0 mg/kg/injection, schedule: Q04DX003 (ip), vehicle: saline) 94 % of control; (endpoint: mean survival time, dose: 400.0 mg/kg/injection, schedule: Q04DX003 (ip), vehicle: saline) 100 % of control.

In the case of `COC1=C(N2CC2)C(=O)C(OC)=C(N2CC2)C1=O`, the T/C was 115 % of control (endpoint: mean survival time, dose: 0.9 mg/kg/injection, schedule: Q01DX015 (ip), vehicle: saline); 119 % of control (endpoint: mean survival time, dose: 1.3 mg/kg/injection, schedule: Q01DX015 (ip), vehicle: saline); 113 % of control (endpoint: mean survival time, dose: 3.0 mg/kg/injection, schedule: Q01DX015 (ip), vehicle: saline).

For `O=C1c2ccccc2C(=O)c2c(NCCNCCO)ccc(O)c21`, the T/C runs as follows: (endpoint: mean survival time, dose: 1.25 mg/kg/injection, schedule: Q01DX009 (ip), vehicle: suspension in saline) 100 % of control; (endpoint: mean survival time, dose: 2.5 mg/kg/injection, schedule: Q01DX009 (ip), vehicle: suspension in saline) 101 % of control and 112 % of control; (endpoint: mean survival time, dose: 5.0 mg/kg/injection, schedule: Q01DX009 (ip), vehicle: suspension in saline) 113 % of control and 103 % of control; (endpoint: mean survival time, dose: 7.5 mg/kg/injection, schedule: Q01DX009 (ip), vehicle: saline) 193 % of control; (endpoint: mean survival time, dose: 10.0 mg/kg/injection, schedule: Q01DX009 (ip), vehicle: suspension in saline) 118 % of control and 101 % of control; (endpoint: mean survival time, dose: 15.0 mg/kg/injection, schedule: Q01DX009 (ip), vehicle: saline) 151 % of control. Also, the T/C is 112 % of control (endpoint: mean survival time, dose: 20.0 mg/kg/injection, schedule: Q01DX009 (ip), vehicle: suspension in saline); 156 % of control (endpoint: mean survival time, dose: 40.0 mg/kg/injection, schedule: Q01DX009 (ip), vehicle: suspension in saline); 123 % of control and 110 % of control (endpoint: median survival time, dose: 5.0 mg/kg/injection, schedule: Q01DX009 (ip), vehicle: suspension in saline); 115 % of control (endpoint: median survival time, dose: 10.0 mg/kg/injection, schedule: Q01DX009 (ip), vehicle: suspension in saline); 150 % of control (endpoint: median survival time, dose: 20.0 mg/kg/injection, schedule: Q01DX009 (ip), vehicle: suspension in saline); 153 % of control and 155 % of control (endpoint: median survival time, dose: 40.0 mg/kg/injection, schedule: Q01DX009 (ip), vehicle: suspension in saline). Under “endpoint: median survival time, dose: 80.0 mg/kg/injection, schedule: Q01DX009 (ip), vehicle: suspension in saline”, the T/C is 158 % of control and 183 % of control.

Consider `Cc1cccc(NC(=O)COc2ccc(Cl)cc2C)c1`, for which the T/C runs as follows: (endpoint: mean survival time, dose: 100.0 mg/kg/injection, schedule: Q04DX002 (ip), vehicle: saline with Tween-80) 110 % of control; (endpoint: mean survival time, dose: 200.0 mg/kg/injection, schedule: Q04DX002 (ip), vehicle: saline with Tween-80) 94 % of control; (endpoint: mean survival time, dose: 400.0 mg/kg/injection, schedule: Q04DX002 (ip), vehicle: saline with Tween-80) 98 % of control.

In the case of `O=c1oc(-c2ccc3c(c2)OCO3)nc2ccccc12`, the T/C was 91 % of control under setting [3] and 87 % of control under setting [4].
